Like-named read-outs stand apart in the source and are kept apart here.
Test: Pharmacokinetics in mice
Assay type: in vivo, BALB/c hairy mice
Conditions: both sexes, BALB/c hairy, mouse; for AUC / Cmax / Tmax / half-life: ± standard error of the estimate; for half-life: read-out: t½ (converted); for bioavailability: po, read-out: F (oral bioavailability)
Procedure: Pharmacokinetics. The pharmacokinetics of CDDD11-8 was determined in mice after single oral (PO) and intravenous (IV) doses. CDDD11-8 was administered at a dose of 10 or 100 mg/kg PO or 2 mg/kg IV to BALB/c hairy mice (n = 10 per route of administration; both male and female). The IV dose consisted of CDDD11-8 dissolved in 10/90 N-methyl-2-pyrrolidone (NMP)/acetate buffer (pH 4.5), while the PO doses of CDDD11-8 were dissolved in acetate buffer at pH 4.74. At nominal times, up to three blood samples were collected from individual mice at non-consecutive times from the right cheek, left cheek, and heart of an individual mouse. The concentrations in these samples were measured by validated LC-MS/MS methods (limit of quantification = 5 ng/mL). Pharmacokinetic parameters were estimated after fitting compartmental models to the concentration–time data (Phoenix, Certara, NJ, USA). Specifically, a one-compartmental kinetic model with first-order input was used after an oral dose, and a two-compartmental model was fitted to the IV data. Acceptability of models was evaluated from values for Akaike Information Criterion (AIC), Schwarz’s Bayesian Criterion (SIB), and % Coefficient of Variance (CV) for parameters, where lower values were indicative of a better fit. Other considerations were variances in the concentrations of quality control samples and visual inspection of model fit. Oral bioavailability (F) was calculated from values of AUC after PO and IV administration after correcting for the differences in doses.

[1] = plasma, PO 10 mg/kg, read-out: Plasma Conc.
[2] = plasma, PO 100 mg/kg, read-out: Plasma Conc.

Structure (SMILES): Cc1cnc(N[C@H]2CC[C@H](N)CC2)nc1-c1cnc2ccc(-c3ccccc3)cn12 [CDDD11-8]
- concentration at 5.4 h (plasma, PO 10 mg/kg, 5.4 h, read-out: Plasma Conc.): 17 ng/mL
- concentration at 6.2 h (plasma, PO 10 mg/kg, 6.2 h, read-out: Plasma Conc.): 20 ng/mL
- concentration at 6.8 h (plasma, PO 10 mg/kg, 6.8 h, read-out: Plasma Conc.): 3.4 ng/mL
- concentration at 7.8 h [1]: 1.6 ng/mL
- concentration at 8.5 h (plasma, PO 10 mg/kg, 8.5 h, read-out: Plasma Conc.): 1.8 ng/mL
- concentration at 9.7 h (plasma, PO 10 mg/kg, 9.7 h, read-out: Plasma Conc.): 1 ng/mL
- concentration at 15.8 h (plasma, PO 10 mg/kg, 15.8 h, read-out: Plasma Conc.): 0 ng/mL
- concentration at 21 h (plasma, PO 10 mg/kg, 21.0 h, read-out: Plasma Conc.): 0 ng/mL
- concentration at 24.6 h [1]: 0 ng/mL
- concentration at 0.1 h (plasma, PO 100 mg/kg, 0.10 h, read-out: Plasma Conc.): 810 ng/mL
- concentration at 0.38 h (plasma, PO 100 mg/kg, 0.38 h, read-out: Plasma Conc.): 925 ng/mL
- concentration at 0.73 h (plasma, PO 100 mg/kg, 0.73 h, read-out: Plasma Conc.): 2660 ng/mL
- concentration at 1.2 h (plasma, PO 100 mg/kg, 1.2 h, read-out: Plasma Conc.): 1810 ng/mL
- concentration at 1.9 h (plasma, PO 100 mg/kg, 1.9 h, read-out: Plasma Conc.): 3010 ng/mL
- concentration at 2.6 h (plasma, PO 100 mg/kg, 2.6 h, read-out: Plasma Conc.): 3680 ng/mL
- concentration at 2.9 h (plasma, PO 100 mg/kg, 2.9 h, read-out: Plasma Conc.): 2480 ng/mL
- concentration at 4.9 h (plasma, PO 100 mg/kg, 4.9 h, read-out: Plasma Conc.): 4830 ng/mL
- concentration at 6.1 h (plasma, PO 100 mg/kg, 6.1 h, read-out: Plasma Conc.): 2160 ng/mL
- concentration at 7 h (plasma, PO 100 mg/kg, 7.0 h, read-out: Plasma Conc.): 881 ng/mL
- concentration at 7.8 h [2]: 717 ng/mL
- concentration at 8.3 h (plasma, PO 100 mg/kg, 8.3 h, read-out: Plasma Conc.): 1200 ng/mL
- concentration at 8.9 h (plasma, PO 100 mg/kg, 8.9 h, read-out: Plasma Conc.): 854 ng/mL
- concentration at 9.6 h (plasma, PO 100 mg/kg, 9.6 h, read-out: Plasma Conc.): 248 ng/mL
- concentration at 16 h (plasma, PO 100 mg/kg, 16.0 h, read-out: Plasma Conc.): 77 ng/mL
- concentration at 22.1 h (plasma, PO 100 mg/kg, 22.1 h, read-out: Plasma Conc.): 153 ng/mL
- concentration at 24.6 h [2]: 74 ng/mL
- concentration at 29 h (plasma, PO 100 mg/kg, 29.0 h, read-out: Plasma Conc.): 62 ng/mL
- concentration at 41.2 h (plasma, PO 100 mg/kg, 41.2 h, read-out: Plasma Conc.): 0 ng/mL
- Vd (plasma, intravenous, 2 mg/kg, read-out: volume of distribution): 1.71 L/kg
- AUC (plasma, oral 10 mg/kg): 1360 ± 249 ng·h/mL
- Cmax (plasma, oral 10 mg/kg): 496 ± 108 ng/mL
- Tmax (plasma, oral 10 mg/kg): 1 ± 0.1 h
- half-life (plasma, oral 10 mg/kg): 0.68 ± 0.3 h
- AUC (plasma, oral 100 mg/kg): 25400 ng·h/mL
- Cmax (plasma, oral 100 mg/kg): 3600 ± 822 ng/mL
- Tmax (plasma, oral 100 mg/kg): 2 ± 0.6 h
- half-life (plasma, oral 100 mg/kg): 6.8 ± 3.7 h
- bioavailability (plasma, 10 mg/kg, oral 10 mg/kg): ~30%
- bioavailability (plasma, 100 mg/kg, oral 100 mg/kg): 56%
- clearance (whole blood, intravenous, 2 mg/kg, plasma clearance divided by B/P, read-out: blood clearance (converted)): 51.7 mL/min/kg

Source: publication PMC8909834, “An Orally Bioavailable and Highly Efficacious Inhibitor of CDK9/FLT3 for the Treatment of Acute Myeloid Leukemia” (Cancers, 2022)
